According to patent US20080058269A1, “Insulin Releasing Peptides” (priority 2003, published 2008):
Like-named read-outs stand apart in the source and are kept apart here.

Key:
BRIN-BD11 cells [1] = type: cell-based, rat; conditions: for Insulin-releasing action in the presence of verapamil (in words): 50 μM verapamil, calcium channel blocker; for Insulin-releasing action in cells depolarised with KCl (in words): 30 mM KCl
Description: (§1) Culture of insulin-secreting cells: Clonal rat insulin-secreting BRIN-BD11 cells were cultured in RPMI-1640 tissue culture medium containing 10% (v/v) fetal calf serum, 1% (v/v) antibiotics (100 U/ml penicillin, 0.1 mg/ml streptomycin) and 11.1 mM glucose. The production and characterisation of BRIN-BD11 cells are described elsewhere. Cells were maintained in sterile tissue culture flasks (Corning, Glass Works, UK) at 37° C. in an atmosphere of 5% CO2 and 95% air using LEEC incubator (Laboratory Technical Engineering, Nottingham, UK). In three experimental series using purified peptides from Agalychnis calcarifer, Bombina variegata and Rana saharica cells were cultured overnight with 25 μM forskolin, 10 nM PMA or 0.1 μg/ml pertussis toxin prior to acute tests.
Acute insulin release studies: Insulin release from BRIN-BD11 cells was determined using cell monolayers [McClenaghan N H, Barnett C R, Ah-Sing E, Abdel-Wahab Y H, O'Harte F P, Yoon T W, Swanston-Flatt S K and Flatt P R 1996 Characterization of a novel glucose-responsive insulin-secreting cell line, BRIN-BD11, produced by electrofusion. Diabetes 45 1132-1140]. The cells were harvested with the aid of trypsin/EDTA (Gibco), seeded into 24-multiwell plates (Nunc, Rosklide, Denmark) at a density of […] per well, and allowed to attach overnight. Prior to acute test, cells were preincubated for 40 min at 37° C. in a 1.0 ml Krebs Ringer bicarbonate buffer (115 mM NaCl, 4.7 mM KCl, 1.28 MM CaCl2, 1.2 MM KH2PO4, 1.2 mM MgSO4, 10 mM NaHCO3, 5 g/l bovine serum albumin, pH 7.4) supplemented with 1.1 mM glucose. Test incubations were performed for 20 min at 37° C. using the same buffer supplemented with 5.6 mM glucose in the absence (control) and presence of various venom fractions, peaks (equivalent to approx. 25 μl dried HPLC fraction) or test agents as indicated in the Figures. Cell viability after 20 min test incubations was assessed by modified neutral red assay [Hunt S M, Chrzanowska C, Barnnett C R, Brand H N and Fawell J K 1987 A comparison of in vitro cytotoxicity assays and their application to water samples. Alternatives to Laboratory Animals 15 20-29]. After incubation, aliquots of buffer were removed and stored at −20° C. for insulin radiomnimmunoassay [Flatt P R. and Bailey C J 1981 Abnormal plasma glucose and insulin responses in heterozygous lean (ob/+) mice. Diabetologia 20 573-577].

BRIN-BD11 cells [2] = assay: Acute insulin release from BRIN-BD11 cells cultured overnight with forskolin, PMA or pertussis toxin; type: cell-based, rat; conditions: acute test at 5.6 mM glucose; for Stimulatory effect on insulin secretion in cells cultured overnight with PMA: 10 nM PMA overnight (protein kinase C pathway); for Stimulatory effect on insulin secretion in cells cultured overnight with pertussis toxin: 0.1 μg/ml pertussis toxin overnight (G-protein pathway); for Stimulatory effect on insulin secretion in cells cultured overnight with forskolin: 25 μM forskolin overnight (desensitised cyclic AMP-protein kinase A pathway)
Description: FIG. 8 illustrates the dependence of the stimulatory effects of 1653.2 Da purified peptide (peak 1.10) from Agalychnis calcarifer on intracellular pathways mediated by protein kinase A (forskolin), protein kinase C (PMA) or pertussis toxin-sensitive G-proteins. Legend: Acute effects of the 13 amino acid 1653.2 Da purified peptide (peak 1.10) from Agalychnis calcarifer on forskolin and PMA on insulin secretion from BRIN-BD11 cells cultured overnight in the absence (control) and presence of 25 μM forskolin, 10 nM PMA or 0.1 μg/ml pertussis toxin. Acute incubations were performed at 5.6 mM glucose. Values are the mean ±SEM for 8 separate observations. ***P<0.001 compared with 5.6 mM glucose alone under same culture conditions. ^ΔΔΔp<0.001 compared with respective test reagent following control culture.
FIG. 9 illustrates the dependence of the stimulatory effects of 1641.7 Da, 1662.6 Da, 1619.8 Da and 1650.5 Da purified peptides (peaks 21, 22, 23 and 24) from Bombina variegata on intracellular pathways mediated by protein kinase A (forskolin), protein kinase C (PMA) or pertussis toxin-sensitive G-proteins. Legend: Acute effects of 1641.7, 1662.6, 1619.8 and 1650.5 Da purified peptides (peaks 21, 22, 23 and 24) from Bombina variegata on forskolin and PMA on insulin secretion from BRIN-BD11 cells cultured overnight in the absence (control) and presence of 25 μM forskolin, 10 nM PMA or 0.1 μg/ml pertussis toxin. Acute incubations were performed at 5.6 mM glucose. Values are the mean ±SEM for 8 separate observations. **P<0.001 compared with 5.6 mM glucose alone under same culture conditions. ^ΔP<0.001 compared with respective test reagent following control culture.
FIG. 10 illustrates the dependence of the stimulatory effects of 4920.4 Da and 4801.2 Da purified peptides (peaks 5.1 and 5.4) from Rana saharica on intracellular pathways mediated by protein kinase A (forskolin), protein kinase C (PMA) or pertussis toxin-sensitive G-proteins. Legend: Acute effects of 4920.4 and 4801.2 Da purified peptides (peaks 5.1 and 5.4) from Rana saharica on forskolin and PMA on insulin secretion from BRIN-BD11 cells cultured overnight in the absence (control) and presence of 25 μM forskolin, 10 nM PMA or […] pertussis toxin. Acute incubations were performed at 5.6 mM glucose. Values are the mean ±SEM for 8 separate observations. ***P<0.001 compared with 5.6 mM glucose alone under same culture conditions. ^ΔΔP<0.001 compared with respective test reagent following control culture.
as §1
Acute insulin release studies: Insulin release from BRIN-BD11 cells was determined using cell monolayers [McClenaghan N H, Barnett C R, Ah-Sing E, Abdel-Wahab Y H, O'Harte F P, Yoon T W, Swanston-Flatt S K and Flatt P R 1996 Characterization of a novel glucose-responsive insulin-secreting cell line, BRIN-BD11, produced by electrofusion. Diabetes 45 1132-1140]. The cells were harvested with the aid of trypsin/EDTA (Gibco), seeded into 24-multiwell plates (Nunc, Rosklide, Denmark) at a density of […] per well, and allowed to attach overnight. […]

[3] = Table 9, no addition, 5.6 mM glucose, 8 observations, control 1.69 ± 0.17
[4] = Table 9, peptide plus KCl (30 mM), 5.6 mM glucose, 8 observations
[5] = Table 9, peptide plus verapamil (50 μM), 5.6 mM glucose, 8 observations

Substance	Insulin release (ng/10^6 cells/20 mins) (BRIN-BD11 cells [1])	Insulin-releasing action in the presence of verapamil (in words) (BRIN-BD11 cells [1])	Insulin-releasing action in cells depolarised with KCl (in words) (BRIN-BD11 cells [1])	Insulin secretion (ng/10^6 cells/20 min) (BRIN-BD11 cells [1]; [3])	Insulin secretion (ng/10^6 cells/20 min) (BRIN-BD11 cells [1]; [4])	Insulin secretion (ng/10^6 cells/20 min) (BRIN-BD11 cells [1]; [5])	Stimulatory effect on insulin secretion in cells cultured overnight with PMA (BRIN-BD11 cells [2])	Stimulatory effect on insulin secretion in cells cultured overnight with pertussis toxin (BRIN-BD11 cells [2])	Stimulatory effect on insulin secretion in cells cultured overnight with forskolin (BRIN-BD11 cells [2])	Insulin secretion (ng/10^6 cells/20 min) (BRIN-BD11 cells [1]; Table 8, no addition, 5.6 mM glucose, control 1.68 ± 0.16)	Insulin secretion (ng/10^6 cells/20 min) (BRIN-BD11 cells [1]; Table 8, peptide plus KCl (30 mM), 5.6 mM glucose)	Insulin secretion (ng/10^6 cells/20 min) (BRIN-BD11 cells [1]; Table 8, peptide plus verapamil (50 μM), 5.6 mM glucose)	Insulin release (ng/10^6 cells/20 mins) (BRIN-BD11 cells [1]; peptides from Agalychnis calcarifer, 5.6 mM glucose, no-peptide control 1.71 ± 0.12)
Pyr-DSFGNQWARGHFM-amidated (HELM PEPTIDE1{[Glp].D.S.F.G.N.Q.W.A.R.G.H.F.M.[am]}$$$$V2.0; SMILES CSCC[C@H](NC(=O)[C@H](Cc1ccccc1)NC(=O)[C@H](Cc1c[nH]cn1)NC(=O)CNC(=O)[C@H](CCCNC(=N)N)NC(=O)[C@H](C)NC(=O)[C@H](Cc1c[nH]c2ccccc12)NC(=O)[C@H](CCC(N)=O)NC(=O)[C@H](CC(N)=O)NC(=O)CNC(=O)[C@H](Cc1ccccc1)NC(=O)[C@H](CO)NC(=O)[C@H](CC(=O)O)NC(=O)[C@@H]1CCC(=O)N1)C(N)=O) [Peptide 22, peptide from Bombina variegata, 72% ID to bombesin]	4.75 ± 0.13	not affected	clearly evident	3.23 ± 0.14	13.69 ± 1.43ΔΔΔ*** ng/10^6 cells/20 min	3.05 ± 0.09	did not affect	did not affect	abolished				
RRKPLFPFIPRPK [Peptide 1.10, 13 amino acid 1653.2 Da purified peptide from Agalychnis calcarifer]		not affected	clearly evident				did not affect	did not affect	abolished	2.75 ± 0.12	16.45 ± 0.10 ΔΔ*** ng/10^6 cells/20 min	3.54 ± 0.20 ΔΔ*** ng/10^6 cells/20 min	2.61 ± 0.11
GKPFYPPPIYPEDM [Peptide 24, peptide from Bombina variegata, 57% ID to tryptophyllin]	4.30 ± 0.20	not affected	clearly evident	3.31 ± 0.20	15.35 ± 0.41ΔΔΔ*** ng/10^6 cells/20 min	3.08 ± 0.29	did not affect	did not affect	abolished				
